Each block holds one compound with its values, some of them ahead of it. Activity calls are given as the source filed them.
Assays:
Bcl-2-like protein 10 = molecular target: T1, Bcl-2-like protein 10 (Homo sapiens, UniProt Q9HD36); assay: Bcl-B/TR3 peptide binding disruption – biochemical, fluorescence polarization, FITC-TR3 peptide, selectivity assay for Bfl-1 inhibitor project, primary screen (AID 748);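 also: fluorescence polarization from a fluorescein-labelled TR3 peptide binding purified Bcl-B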
T1 sequence (Q9HD36 whole entry): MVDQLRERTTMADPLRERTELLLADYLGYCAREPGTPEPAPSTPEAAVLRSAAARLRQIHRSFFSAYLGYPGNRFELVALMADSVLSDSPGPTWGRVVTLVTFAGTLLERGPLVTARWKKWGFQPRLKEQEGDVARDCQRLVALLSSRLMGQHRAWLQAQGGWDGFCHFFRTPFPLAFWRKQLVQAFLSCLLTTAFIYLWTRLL

Estrogen receptor beta [1] = molecular target: T2, Estrogen receptor beta (Homo sapiens, UniProt Q92731);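 also: recombinant ER-beta bound to coactivator SRC1 peptide in presence of estradiol agonist; inhibitors block coactivator peptide binding and lower the FRET signal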
Estrogen receptor beta [2] = molecular target: T2, Estrogen receptor beta; assay: blockers of SRC-3 recruitment to ERβ – biochemical, ELISA, streptavidin-HRP readout, orthogonal assay, confirmation (AID 1060)
[3] = HIV-1 Vif–A3G interaction blockers – biochemical, TR-FRET, GST-Vif 1-94, biotin-A3G peptide, dose response retest, primary screen (AID 1117319); assay type: functional;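 also: TR-FRET signal of purified GST-Vif binding a biotinylated A3G peptide; inhibitors lower the FRET signal by blocking Vif and A3G binding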
Cytochrome P450 2C19 = Cytochrome P450 2C19 (Homo sapiens, UniProt P33261); assay: qHTS Assay for Inhibitors and Substrates of Cytochrome P450 2C19. [Related pubchem assays: 410 ]; assay type: ADME; details: read-out: Potency
[4] = molecular target: Peroxisome proliferator-activated receptor gamma/Nuclear receptor coactivator 2 (Homo sapiens, UniProt P37231); assay type: functional;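 also: agonist potency for raising coactivator recruitment to the receptor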
[5] = molecular target: Peroxisome proliferator-activated receptor gamma/Nuclear receptor coactivator 1 (Homo sapiens, UniProt P37231); assay type: functional;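 also: agonist potency as compounds enhance coactivator SRC-1 recruitment to PPARgamma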
[6] = molecular target: Peroxisome proliferator-activated receptor gamma/Nuclear receptor coactivator 3 (Homo sapiens, UniProt P37231); assay type: functional;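 also: agonist potency for raising coactivator recruitment to the receptor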
Estrogen receptor = molecular target: T3, Estrogen receptor (Homo sapiens, UniProt P03372);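 also: potency for inhibiting coactivator peptide recruitment to the receptor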
T3 sequence (P03372 whole entry): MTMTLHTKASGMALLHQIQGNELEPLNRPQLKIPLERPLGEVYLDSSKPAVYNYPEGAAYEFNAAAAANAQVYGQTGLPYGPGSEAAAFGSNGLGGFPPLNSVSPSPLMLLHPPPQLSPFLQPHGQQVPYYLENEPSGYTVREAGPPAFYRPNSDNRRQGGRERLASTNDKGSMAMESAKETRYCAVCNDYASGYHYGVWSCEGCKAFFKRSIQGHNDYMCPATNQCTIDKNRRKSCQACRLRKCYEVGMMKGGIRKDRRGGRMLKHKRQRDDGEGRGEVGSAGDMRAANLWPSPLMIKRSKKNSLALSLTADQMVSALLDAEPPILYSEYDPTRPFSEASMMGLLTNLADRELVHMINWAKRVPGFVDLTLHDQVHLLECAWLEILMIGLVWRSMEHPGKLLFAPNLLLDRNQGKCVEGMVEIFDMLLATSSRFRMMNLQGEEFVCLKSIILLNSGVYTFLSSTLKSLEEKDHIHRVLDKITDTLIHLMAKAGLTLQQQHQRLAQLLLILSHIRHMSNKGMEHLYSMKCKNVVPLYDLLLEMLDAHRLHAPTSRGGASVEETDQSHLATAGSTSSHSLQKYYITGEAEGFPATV

[7] = IC50 of insulin release inhibition, rat insulinoma INS-1E line, 5 mM glucose, cell-based (AID 1117331); assay type: functional
[8] = reduced cellular PGC1a acetyl-lysine signal – cell-based, cherry-picked samples, dose response (AID 720514); assay type: functional;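 also: potency may reflect raised or lowered acetylation signal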
Paired box protein Pax-8 = Paired box protein Pax-8 (Homo sapiens, UniProt Q06710); assay: PAX8 transcriptional activity inhibition in RMG-I – RMG-I cells, luciferase, cherry-pick, dose response (AID 687027); assay type: functional, cell-based;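 also: luciferase reporter driven by Pax8 target thyroperoxidase promoter measured by SteadyGlo luminescence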
[9] = general cell-killing toxicity readout – plate reader, dry powder samples, cytotoxicity control for PAX8 inhibitor project, dose response (AID 743021); assay type: functional, cell-based
[10] = OVCAR-3 cell viability loss – plate reader, dry powder samples, PAX8 inhibitor project, dose response (AID 743044); assay type: functional, cell-based
[11] = OVCAR8 cell viability loss – plate reader, dry powder samples, PAX8 project, dose response (AID 743197); assay type: functional, cell-based; details: OVCAR-8
[12] = Dd2 parasite growth inhibition in erythrocytes – SYBR Green, dry powder samples, set 9, dose response (AID 1159568); assay type: functional, cell-based
[13] = P. falciparum Dd2 growth inhibitors, dose response, SYBR Green, cherry-picked samples (AID 1159567); assay type: functional, cell-based
[14] = A549 cell cytotoxicity, dose response, cytotoxicity control, plate reader, cherry-pick, antagonist series (AID 743412); assay type: functional, cell-based
[15] = toxicity toward HepG2 liver cells – cell-based, plate reader, cherry-pick, antagonist series, cytotoxicity control, dose response (AID 743416); assay type: functional
[16] = blockade of melanocortin 4 receptor signaling – cell-based, plate reader, cherry pick, counter-screen for LGR2 antagonist project, dose response (AID 743444); assay type: functional;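 also: transfected HEK 293 cells stimulated with alpha-MSH peptide; potency of inhibitors of the alpha-MSH evoked signal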
[17] = T. cruzi growth inhibition in host cells, dose response, cell-based, plate reader, dry powder, set 2 (AID 652275); assay type: functional
[18] = growth inhibition of yeast DHODH-expressing 3D7 parasites – SYBR Green, dry powder samples, dose response (AID 1159570); assay type: functional, cell-based;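 also: parasite growth measured after 72 hours of compound exposure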
[19] = toxicity to human HepG2 hepatoma cells – cell-based, plate reader, dry powder samples, cytotoxicity control, dose response (AID 1159569); assay type: functional;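 also: inhibitor potency with signal falling toward the positive control level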
[20] = Dd2 malaria parasite growth inhibition potency – SYBR Green, dry powder samples, dose response (AID 1159566); assay type: functional, cell-based;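 also: potency for growth inhibition with lower SYBR green DNA signal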
[21] = growth inhibition of PfATP4-mutant resistant parasites – NITD609-resistant line, SYBR Green, dry powder, dose response (AID 1159571); assay type: functional, cell-based;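 also: parasites synchronized at ring stage by sorbitol before testing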
[22] = molecular target: T4, Methionyl-tRNA synthetase, putative (Trypanosoma brucei brucei, UniProt Q38C91); assay type: functional, Trypanosoma brucei brucei strain 927/4 GUTat10.1
T4 sequence (Q38C91 whole entry): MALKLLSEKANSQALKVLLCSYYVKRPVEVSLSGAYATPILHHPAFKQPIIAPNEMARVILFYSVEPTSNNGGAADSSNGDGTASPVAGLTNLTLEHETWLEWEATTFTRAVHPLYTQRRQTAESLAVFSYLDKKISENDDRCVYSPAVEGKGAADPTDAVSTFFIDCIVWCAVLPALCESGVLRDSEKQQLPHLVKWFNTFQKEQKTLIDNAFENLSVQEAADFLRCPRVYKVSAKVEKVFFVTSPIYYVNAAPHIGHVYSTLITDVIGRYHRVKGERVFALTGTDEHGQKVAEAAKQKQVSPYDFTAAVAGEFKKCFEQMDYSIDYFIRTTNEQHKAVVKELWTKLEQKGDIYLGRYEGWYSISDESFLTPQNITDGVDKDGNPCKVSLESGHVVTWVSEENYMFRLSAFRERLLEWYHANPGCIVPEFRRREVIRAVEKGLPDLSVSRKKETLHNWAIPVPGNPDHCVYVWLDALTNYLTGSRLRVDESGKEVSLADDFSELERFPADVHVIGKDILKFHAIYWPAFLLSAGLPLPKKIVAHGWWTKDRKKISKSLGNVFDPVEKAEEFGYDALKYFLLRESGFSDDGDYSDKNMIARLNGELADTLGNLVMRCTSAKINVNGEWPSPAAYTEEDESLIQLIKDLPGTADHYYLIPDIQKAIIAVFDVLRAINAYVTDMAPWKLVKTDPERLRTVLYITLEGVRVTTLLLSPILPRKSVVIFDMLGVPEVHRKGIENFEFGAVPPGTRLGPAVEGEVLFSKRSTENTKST

[23] = Counterscreen for inhibitors of Trypanosoma brucei methionyl tRNA synthetase (MetRS): Luminescence-based cell-based high throughput dose response assay to identify compounds that are cytotoxic to Jurkat human T lymphocyte cells.; assay type: functional
[24] = molecular target: T4, Methionyl-tRNA synthetase, putative; assay type: functional, Trypanosoma brucei brucei strain 927/4 GUTat10.1; remark: listed apart in the source
[25] = molecular target: T5, DNA repair protein RAD52 homolog (Homo sapiens, UniProt P43351); assay type: functional, biochemical
T5 sequence (P43351 whole entry): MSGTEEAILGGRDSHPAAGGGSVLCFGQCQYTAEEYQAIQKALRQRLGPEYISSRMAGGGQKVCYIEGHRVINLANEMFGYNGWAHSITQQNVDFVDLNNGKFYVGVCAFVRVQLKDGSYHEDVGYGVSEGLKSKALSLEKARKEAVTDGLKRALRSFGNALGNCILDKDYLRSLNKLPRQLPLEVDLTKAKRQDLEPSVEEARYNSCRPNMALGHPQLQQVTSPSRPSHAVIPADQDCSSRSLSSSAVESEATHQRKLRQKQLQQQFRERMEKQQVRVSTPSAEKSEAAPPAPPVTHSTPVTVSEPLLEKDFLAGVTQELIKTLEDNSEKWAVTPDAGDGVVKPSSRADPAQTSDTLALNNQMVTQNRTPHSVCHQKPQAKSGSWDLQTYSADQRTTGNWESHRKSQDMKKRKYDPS

T2 sequence (Q92731 whole entry): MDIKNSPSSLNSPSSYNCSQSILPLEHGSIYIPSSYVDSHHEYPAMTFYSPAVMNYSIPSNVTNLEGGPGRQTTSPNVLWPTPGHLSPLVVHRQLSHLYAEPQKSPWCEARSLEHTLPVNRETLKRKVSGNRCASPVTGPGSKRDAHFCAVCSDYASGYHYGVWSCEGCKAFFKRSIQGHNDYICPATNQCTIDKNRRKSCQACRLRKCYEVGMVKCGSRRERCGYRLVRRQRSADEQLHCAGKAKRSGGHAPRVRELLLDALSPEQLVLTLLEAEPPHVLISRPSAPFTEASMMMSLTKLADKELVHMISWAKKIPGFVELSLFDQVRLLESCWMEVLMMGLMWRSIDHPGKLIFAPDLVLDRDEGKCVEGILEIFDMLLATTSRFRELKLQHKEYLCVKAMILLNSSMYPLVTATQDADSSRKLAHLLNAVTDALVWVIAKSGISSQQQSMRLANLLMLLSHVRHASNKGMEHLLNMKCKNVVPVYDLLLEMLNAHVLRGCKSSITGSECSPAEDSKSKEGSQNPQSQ
Paired box protein Pax-8, sequence (Q06710 whole entry): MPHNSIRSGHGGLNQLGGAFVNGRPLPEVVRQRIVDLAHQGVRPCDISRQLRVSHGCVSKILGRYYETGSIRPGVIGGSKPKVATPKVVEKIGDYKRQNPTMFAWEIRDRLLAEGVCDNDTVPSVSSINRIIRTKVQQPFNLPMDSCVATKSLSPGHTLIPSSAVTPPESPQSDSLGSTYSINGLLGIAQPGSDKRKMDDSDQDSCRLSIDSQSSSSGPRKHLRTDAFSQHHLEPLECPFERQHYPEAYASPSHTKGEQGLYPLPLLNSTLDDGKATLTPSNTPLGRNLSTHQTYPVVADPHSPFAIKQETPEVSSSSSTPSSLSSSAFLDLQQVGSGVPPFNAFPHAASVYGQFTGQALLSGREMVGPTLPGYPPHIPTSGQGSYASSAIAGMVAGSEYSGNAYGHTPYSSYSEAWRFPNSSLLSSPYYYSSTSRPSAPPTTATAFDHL
Cytochrome P450 2C19, sequence (P33261 whole entry): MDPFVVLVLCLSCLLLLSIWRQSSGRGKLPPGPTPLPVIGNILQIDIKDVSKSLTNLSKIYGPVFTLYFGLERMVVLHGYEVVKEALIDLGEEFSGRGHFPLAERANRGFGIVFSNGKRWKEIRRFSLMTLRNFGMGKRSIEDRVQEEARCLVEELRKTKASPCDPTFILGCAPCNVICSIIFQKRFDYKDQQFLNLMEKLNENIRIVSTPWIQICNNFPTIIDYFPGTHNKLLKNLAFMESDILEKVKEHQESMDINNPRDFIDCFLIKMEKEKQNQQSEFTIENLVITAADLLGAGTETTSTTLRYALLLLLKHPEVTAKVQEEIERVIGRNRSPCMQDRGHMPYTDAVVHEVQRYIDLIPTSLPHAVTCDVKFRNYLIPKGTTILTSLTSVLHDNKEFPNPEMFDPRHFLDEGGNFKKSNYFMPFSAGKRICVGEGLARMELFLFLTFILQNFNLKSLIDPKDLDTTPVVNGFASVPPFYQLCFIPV
Peroxisome proliferator-activated receptor gamma/Nuclear receptor coactivator 2, sequence (P37231 whole entry): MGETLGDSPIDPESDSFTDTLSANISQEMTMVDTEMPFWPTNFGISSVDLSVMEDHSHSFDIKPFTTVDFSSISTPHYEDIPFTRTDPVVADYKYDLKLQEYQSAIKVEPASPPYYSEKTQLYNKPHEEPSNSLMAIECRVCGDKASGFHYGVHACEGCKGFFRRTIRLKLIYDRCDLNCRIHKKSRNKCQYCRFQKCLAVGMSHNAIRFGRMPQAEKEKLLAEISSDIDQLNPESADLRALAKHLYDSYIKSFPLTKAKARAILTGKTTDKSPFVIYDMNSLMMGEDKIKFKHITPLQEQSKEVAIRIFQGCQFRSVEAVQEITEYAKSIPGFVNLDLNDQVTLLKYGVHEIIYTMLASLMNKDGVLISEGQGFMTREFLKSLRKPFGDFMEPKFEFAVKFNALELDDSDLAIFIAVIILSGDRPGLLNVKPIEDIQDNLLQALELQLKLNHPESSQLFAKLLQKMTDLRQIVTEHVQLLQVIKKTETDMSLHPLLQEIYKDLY
Peroxisome proliferator-activated receptor gamma/Nuclear receptor coactivator 2, sequence (Q15596 whole entry, further chain): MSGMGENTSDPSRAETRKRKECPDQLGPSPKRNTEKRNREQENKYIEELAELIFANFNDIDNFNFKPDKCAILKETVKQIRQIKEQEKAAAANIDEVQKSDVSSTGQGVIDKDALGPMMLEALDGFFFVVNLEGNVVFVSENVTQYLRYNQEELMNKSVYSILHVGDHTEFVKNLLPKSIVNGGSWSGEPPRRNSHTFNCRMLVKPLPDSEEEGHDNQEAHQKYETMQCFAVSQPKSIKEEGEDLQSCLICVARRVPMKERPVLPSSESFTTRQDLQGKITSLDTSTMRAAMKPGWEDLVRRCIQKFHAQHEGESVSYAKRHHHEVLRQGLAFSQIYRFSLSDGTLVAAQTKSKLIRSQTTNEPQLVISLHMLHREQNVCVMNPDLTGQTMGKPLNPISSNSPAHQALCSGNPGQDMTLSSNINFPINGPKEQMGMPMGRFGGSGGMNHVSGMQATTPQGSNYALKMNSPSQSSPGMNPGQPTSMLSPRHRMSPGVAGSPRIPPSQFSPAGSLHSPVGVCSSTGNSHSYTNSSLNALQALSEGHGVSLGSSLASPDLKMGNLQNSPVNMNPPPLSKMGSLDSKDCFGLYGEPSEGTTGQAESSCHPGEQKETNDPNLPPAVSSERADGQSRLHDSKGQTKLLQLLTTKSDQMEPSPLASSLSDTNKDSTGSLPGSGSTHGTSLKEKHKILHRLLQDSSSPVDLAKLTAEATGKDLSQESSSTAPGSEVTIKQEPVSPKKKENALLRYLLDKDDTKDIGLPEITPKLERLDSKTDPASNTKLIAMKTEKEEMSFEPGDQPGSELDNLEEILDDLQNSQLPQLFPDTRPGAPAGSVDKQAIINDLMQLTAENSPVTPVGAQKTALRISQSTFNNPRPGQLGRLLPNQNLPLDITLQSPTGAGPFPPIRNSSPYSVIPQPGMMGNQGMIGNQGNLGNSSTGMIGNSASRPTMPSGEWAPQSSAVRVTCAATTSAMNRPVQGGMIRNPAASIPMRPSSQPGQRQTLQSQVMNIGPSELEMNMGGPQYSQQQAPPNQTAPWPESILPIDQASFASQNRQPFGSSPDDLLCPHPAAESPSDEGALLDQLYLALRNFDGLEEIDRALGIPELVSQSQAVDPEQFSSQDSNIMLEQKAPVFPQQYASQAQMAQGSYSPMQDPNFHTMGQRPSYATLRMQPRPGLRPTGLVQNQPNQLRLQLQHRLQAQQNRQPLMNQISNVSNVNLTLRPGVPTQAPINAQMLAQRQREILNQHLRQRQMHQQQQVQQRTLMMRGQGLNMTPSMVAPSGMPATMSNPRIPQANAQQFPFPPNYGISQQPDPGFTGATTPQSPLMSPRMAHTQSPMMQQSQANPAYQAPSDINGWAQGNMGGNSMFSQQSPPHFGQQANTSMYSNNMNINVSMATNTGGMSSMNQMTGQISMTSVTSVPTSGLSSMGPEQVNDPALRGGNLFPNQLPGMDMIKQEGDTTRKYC

IC50 (Bcl-2-like protein 10): 62.5 µM (inactive)
IC50 (Estrogen receptor beta [1]): 31 µM (not active)
IC50 (Estrogen receptor beta [2]): 14.7 µM (not active)
IC50 [3]: > 100 µM (active)
SMILES: CCc1ccccc1NC(=O)c1cc2ncc(Br)cn2n1

AC50 (Cytochrome P450 2C19): 3.98 µM (inconclusive)
SMILES: CC(=O)c1ccc(OC2C=CC(C#Cc3ccc(Br)cc3)OC2CO)cc1 (stereo not drawn)

AC50 (Cytochrome P450 2C19): 7.94 µM (inconclusive)
SMILES: CCCCC#CC1C=CC(OC(C)=O)C(COC(C)=O)O1 (stereo not drawn)

EC50 [4]: > 79.4 µM (not active)
EC50 [5]: > 79.4 µM (not active)
EC50 [6]: > 79.4 µM (not active)
SMILES: O=C(C1=C[C@@H](c2ccc(C(F)(F)F)cc2)C[C@@H](OCCCCO)O1)N1CCN(Cc2ccc3c(c2)OCO3)CC1

EC50 [4]: > 79.4 µM (not active)
EC50 [5]: > 79.4 µM (not active)
EC50 [6]: > 79.4 µM (not active)
SMILES: CC(C)NC(=O)NC(=O)CSc1ccccc1F

IC50 (Estrogen receptor): > 50 µM (not active)
IC50 (Estrogen receptor beta [1]): 6.84 µM (active)
IC50 (Estrogen receptor beta [2]): 6.1 µM (not active)
SMILES: Cc1ccc(C(=O)NCC(=O)OCC(=O)c2c(N)n(C)c(=O)n(C)c2=O)s1

SMILES: COc1ccc2c(c1OC)C(=O)O[C@H]2[C@@H]1c2cc3c(cc2CCN1C)OCO3
IC50 [7]: > 33.3 µM (inactive)

IC50 [3]: > 100 µM (active)
SMILES: CCOC(=O)/C(C#N)=C/c1c(OCC)n(CC)c2ccccc12

IC50 [3]: > 100 µM (active)
SMILES: CCC(C)NS(=O)(=O)c1ccc(NS(=O)(=O)c2ccc(F)cc2)cc1 (stereo not drawn)

SMILES: O=C(NC1CCCC1)C(c1ccncc1)N(Cc1ccccc1F)C(=O)c1csnn1 (stereo not drawn)
AC50 [8]: 34.7 µM (active)

SMILES: COc1ccc(S(=O)(=O)Nc2ccc3c(c2)C(=O)N([C@@H](C)CO)C[C@H](C)[C@@H](CN(C)C(=O)Nc2ccc(F)cc2)OCCCC[C@H](C)O3)cc1
AC50 (Paired box protein Pax-8): 9.96 µM (active)
AC50 [9]: 59.1 µM (active)

SMILES: O=C(C[C@H]1C[C@@H]2c3cc(NS(=O)(=O)c4ccc(F)cc4)ccc3O[C@@H]2[C@@H](CO)O1)N1CCc2ccccc2C1
AC50 (Paired box protein Pax-8): 3.86 µM (active)
AC50 [8]: 17.5 µM (active)
AC50 [10]: 26.1 µM (active)
AC50 [9]: 57.8 µM (active)
AC50 [11]: 23.9 µM (active)
AC50 [12]: 6.85 µM (active)
AC50 [13]: 9.73 µM (active)

SMILES: C[C@H]1CN([C@@H](C)CO)C(=O)c2cc(C#CCc3ccccc3)cnc2O[C@H]1CN(C)Cc1ccccc1
AC50 [14]: 23.3 µM (active)
AC50 [15]: > 52 µM (inactive)
AC50 [16]: 38.2 µM (active)

SMILES: CN(C)C(=O)c1ccc(-c2ccc([C@H]3[C@H](CO)N4CCCCN(C(=O)C5CCCC5)C[C@@H]34)cc2)cc1
AC50 [17]: 0.0488 µM (active)

SMILES: COc1ccc(C#Cc2cccc(-c3nc(C(=O)NCc4ccc5c(c4)OCO5)cc4c3[C@@H](CCO)N([S+]([O-])C(C)(C)C)C4)c2)cc1OC (stereo partly drawn)
AC50 [17]: 0.58 µM (active)
AC50 [18]: 2.05 µM (active)
AC50 [19]: > 100 µM (inactive)
AC50 [13]: 0.747 µM (active)
AC50 [20]: 0.838 µM (active)
AC50 [21]: 1.52 µM (active)

SMILES: CN(C)C(=O)c1cccc(-c2ccc([C@H]3[C@H](CO)N4CCCCN(CC5CCOCC5)C[C@@H]34)cc2)c1
AC50 [17]: 4.63 µM (active)

SMILES: CN(C)CC(=O)N1CCCCN2[C@@H](CO)[C@H](c3ccc(/C=C/c4ccccc4)cc3)[C@@H]2C1
AC50 [8]: 23.8 µM (active)

IC50 (Estrogen receptor beta [1]): 12.2 µM (active)
IC50 (Estrogen receptor beta [2]): 5.18 µM (not active)
SMILES: CC(=N)/C(C#N)=C(/O)CSc1nnc(Nc2ccccc2C)s1

SMILES: C[C@@H]1CCCCO[C@@H](CN(C)C(=O)Nc2cccc3ccccc23)[C@H](C)CN([C@H](C)CO)C(=O)c2cc(NC(=O)CCC(F)(F)F)ccc2O1
AC50 [12]: 1.08 µM (active)

SMILES: COc1ccc(NC(=O)N(C)C[C@H]2Oc3c(NC(=O)CCCCCC(=O)Nc4ccccc4N)cccc3C(=O)N([C@@H](C)CO)C[C@H]2C)cc1
AC50 [12]: 0.983 µM (active)

SMILES: COc1cc2nc(Nc3cccc(F)c3)nc(N)c2cc1OC
IC50 [22]: 18.2 µM (inactive)
IC50 [23]: 35.5 µM (inactive)
IC50 [24]: 26.2 µM (inactive)
AC50 [25]: 8.77 µM (active)
